The values that follow come from patent publication US20200277571A1, “METHOD FOR AMPLIFYING CONE PHOTORECEPTORS OR ROD PHOTORECEPTORS USING DORSALIZATION SIGNAL TRANSMITTER OR VENTRALIZATION SIGNAL TRANSMITTER” (RIKEN, priority 2017, published 2020).

Test [1] has as its system ALDH1A3 gene. Briefly: Quantitative PCR of ALDH1A3 gene expression in retinal tissue. The conditions noted are these: about day 70-75, 0.15 nM BMP4, 100 nM LDN193189, 100 nM SAG from day 22. In kind it is cell-based, human. As for the experimental part:
(§1) [1] Control group (FIG. 2a, f, k, p); according to the method described in Example 1, culture was performed up to day 70 or day 75 from the start of suspension culture and without addition. [2]+BMP group (FIG. 2b, g, 1, q); 0.15 nM BMP4 was added from day 22 from the start of suspension culture to completion of suspension culture, and cultured up to day 70 or day 75 from the start of suspension culture. [3]+Cyclopamine-KAAD group (FIG. 2c, h, m, r); 500 nM Cyclopamine-KAAD was added from day 22 from the start of suspension culture to completion of the suspension culture, and cultured up to day 70 or day 75 from the start of suspension culture. [4]+LDN193189 group (FIG. 2d, i, n, s); 100 nM LDN193189 was added from day 22 from the start of suspension culture to completion of the suspension culture, and cultured up to day 70 or day 75 from the start of suspension culture. [5]+SAG group (FIG. 2e, j, o, t); 100 nM SAG was added from day 22 from the start of suspension culture to completion of the suspension culture, and cultured up to day 70 or day 75 from the start of suspension culture.
RNA was extracted from retinal tissue on about day 70-75 from the start of suspension culture and prepared under the same conditions, cDNA was synthesized, and the ALDH1A3 gene expression level was analyzed by quantitative PCR. As a result, the expression level of the ALDH1A3 gene was suppressed in +BMP4 group as compared to the Control (NUC) group, and the expression was promoted in +LDN193189 group, +SAG group (FIG. 7, white bar (d70) in graph), as similarly observed by immunostaining. In addition, RNA was extracted from retinal tissue on about day 40-44 from the start of suspension culture and cultured under the same conditions except the culture period, cDNA was synthesized, and the ALDH1A3 gene expression level was analyzed by quantitative PCR. As a result, the expression level scarcely changed on about day 40 from the start of suspension culture as compared to on about day 70 from the start of suspension culture and difference was not found (FIG. 7, black bar (d40) in graph).

The subject of test [2] is ALDH1A1. Briefly: Immunostaining for ALDH1A1 (dorsal marker) of retinal tissue. In kind it is cell-based, human. As for the experimental part:
as §1
The retinal tissue produced by the methods described in Example 2 and Example 7 was fixed with 4% para-formaldehyde, cryosections were prepared, and immunostaining for ALDH1A1 was performed. The retinal tissue used was one on day 75 from the start of suspension culture similar to Example 2 and one on about day 40 from the start of suspension culture and cultured under the same conditions except the culture period as in Example 7.

The test system of test [3] is CYP26A1 gene. In words: Quantitative PCR of CYP26A1 gene expression in retinal tissue. The conditions noted are these: about day 70, 0.15 nM BMP4 or 100 nM LDN193189 from day 22. Type of test: cell-based, human. As for the experimental part:
as §1
On the other hand, using cDNA on about day 70 from the start of suspension culture, the expression level of CYP26A1 gene was analyzed. […]

In test [4] the test system is ALDH1A1 gene. In words: Quantitative PCR of ALDH1A1 gene expression in retinal tissue. Type of test: cell-based, human. As for the experimental part:
as §1
The expression level of ALDH1A1 gene was analyzed by quantitative PCR using the same cDNA as that used in Example 7. As a result, similar to that observed by immunostaining, the expression level of ALDH1A1 gene was promoted in +BMP4 group as compared to the Control (NUC) group on about day 40 from the start of suspension culture (FIG. 8-2, black bar (d40) in graph). […]
After extracting RNA from retinal tissue prepared in this way, cDNA was synthesized and the expression level of ALDH1A1 gene was analyzed by quantitative PCR. […] Furthermore, a retinal tissue prepared using 1.35 nM BMP4 was fixed with 4% para-formaldehyde, cryosections were prepared, and immunostaining using an antibody against GFP (fluorescence of GFP variant incorporated in CRX gene locus can be identified. That is, cells similar to CRX-positive cell can be identified), ALDH1A1, or DAPI staining for staining the nucleus was performed. […]

The test system of test [5] is photoreceptor precursor and cone photoreceptor precursor in retinal tissue produced from human ES cells. Briefly: Immunostaining for CRX and TRβ2 and CRX::Venus fluorescence observation of retinal tissue, day 70-75 of suspension culture. Type of test: cell-based.
[6] abbreviates: about day 40 from start of suspension culture, 0.15 nM BMP4, 100 nM LDN193189, 100 nM SAG from day 22.

As for `c1ccc2c(-c3cnn4cc(-c5ccc(N6CCNCC6)cc5)cnc34)ccnc2c1` [LDN193189, 4-[6-(4-piperazin-1-ylphenyl)pyrazolo[1,5-a]pyrimidin-3-yl]quinoline], the “expression level of the ALDH1A3 gene versus Control (NUC) group” value in test [1] is on record as “promoted”. Moreover, in test [2] (setting [6]), the “clear ALDH1A1-positive region (dorsal region)” value (shortened to “clear ALDH1A1-positive region”) is recorded as “not found”. In test [3], the “expression of CYP26A1 gene” value is listed as “suppresses”.

With `CNC1CCC(N(Cc2cccc(-c3ccncc3)c2)C(=O)c2sc3ccccc3c2Cl)CC1` (centres unmarked) [SAG], the “expression level of the ALDH1A3 gene versus Control (NUC) group” value in test [1] is given as “promoted”. In addition, in test [2] (setting [6]), the “clear ALDH1A1-positive region” value was “not found”.

With “BMP4: BMP protein; BMP signal transduction pathway agonist used as dorsalization signal transmitter”, the “expression level of the ALDH1A3 gene versus Control (NUC) group” value in test [1] was “suppressed”. Moreover, the “clear ALDH1A1-positive region” value was “found only in +BMP4 group” in test [2] (setting [6]) and “not observed” in test [2] (day 75 from start of suspension culture, 0.15 nM BMP4 from day 22). Besides, the ALDH1A1 gene expression result is recorded as “significantly increased” in test [4] (1.35 nM BMP4 from day 22, day 70-75) and “tendency of decrease” in test [4] (about day 70 (versus about day 40), 0.15 nM BMP4 from day 22). The “expression level of ALDH1A1 gene versus Control (NUC) group” value in test [4] (about day 40, 0.15 nM BMP4 from day 22) is recorded as “promoted”. Further, the “expression of CYP26A1 gene” value in test [3] was “promotes”. The “CRX::Venus-positive cells as compared with group added with 0.15 nM BMP4” value in test [5] (0.45 nM BMP4 from day 22) and in test [5] (1.35 nM BMP4 from day 22) was “became less” each time.
